# Source: patent publication USRE40862E1, “Gossypolone for the treatment of cancer” (priority 1990, dated 2009)
# “And” between values parts separate entries of the source, which are not always exact repeats. Equal entries are not always repeated. “Also recorded” adds a separate entry of the source.
# Experiments:
# [1] = mouse; Rao et al. (1985); cited from earlier work
# [2] = test system: metastatic adrenocortical carcinoma; experiment: Phase 1 clinical trial of oral gossypol for adrenocortical cancer
# Procedure: (§1) Gossypol acetic acid, 10 mg compressed tablet, was given orally at a dose of 20 mg/d which was increased by 10 mg/d every three days to a dose of 50 mg/d.
# [3] = clinical; settings: human, in vivo
# Procedure: as §1
# [4] = test system: cancers; settings: cited from earlier work
# [5] = test system: SW-13 human adrenocortical carcinoma; experiment: Gossypol in SW-13 tumor bearing nude mice (preexisting tumors); type: in vivo; settings: for Mean tumor size (mean ± SE): length×width; for Total deaths / Prevalence of tumor: preexisting tumors
# Procedure: Nude mice (Charles River, Kingston, N.Y.) weighing 20-35 g were caged in a temperature-controlled (26-28° C.), 12 h/12 h light/dark animal room. A microporous cage bonnet served as an effective protective barrier between the animal and the outside environment. In addition, the room was continuously purged with […]. The cages, feeders, and water bottles were designed to make standard mouse chow and water readily available while minimizing the opportunity for the transfer of communicable pathogens.
# Another experiment was designed wherein 48 adult male nude mice weighing 25-35 g were injected s.c. with 2×10^6 SW-13 cells. One month later, the animals were divided into two groups of 24. There were 7 nude mice without visible tumors in each group. The gossypol treated animals received 30 mg gossypol acetic acid/kg body weight/day whereas control animals were fed an equal volume of carrier. Body weigths and tumor sizes (lengths×width, cm^2) were measured weekly. During the 12th week of treatment, 5 control animals died. Since it appeared unlikely that the remaining control animals would survive for another week, they were then sacrificed. Autopsies were performed on all animals including those that died during the study period. Internal organs were examined for the presence of gross tumor.
# Data are expressed as the mean±SD unless otherwise indicated. Statistical comparisons were made using an unpaired Student's t test.
# In this experiment, nude mice had been given s.c. injections of SW-13 adrenocortical carcinoma 1 month prior to initiation of the treatment with either gossypol or carrier.
# [6] = test system: SW-13 cells; experiment: In vitro gossypol treatment: SW-13 cell proliferation; type: cell-based, human; settings: 5 and 50 uM gossypol, prolonged exposure (1-6 days)
# Procedure: SW-13 cells were seeded (1×10^4 cells) into 25 cm^2 tissue culture flasks in Dulbecco's minimal Eagle's medium supplemented with fetal calf serum (10%), 100 ug/ml streptomycin, 100 units/ml penicillin, and 2 mM glutamine.
# Sw-13 cells were seeded in a 25-cm^2 tissue culture flask (Costar, Cambridge, Mass.) at densities of 1×10^4 cells/5 ml of Dulbecco's minimal Eagle's medium, supplemented with 10% fetal calf serum, 100 ug/ml streptomycin, 100 units/ml penicillin, and 2 mM glutamine. The cells were grown in a humidified, 37° C. incubator with a 5% CO2/95% air atmosphere. A gossypol stock solution in absolute ethanol was added to the culture medium to yield final concentrations of 0, 0.5, 5, and 50 uM gossypol with a 0.1% final ethanol concentration. After 1, 2, 4, or 6 days of incubation, the culture medium containing a few floating cells was removed. Adherent cells were typsinized (0.1% trypsin, w/v) and counted using a hemocytometer. Cell viability was determined by trypan blue exclusion.
# [7] = test system: adrenocortical carcinoma; experiment: Previous therapy of the patient with adrenocortical carcinoma; type: in vivo, human; settings: person, hepatic metastases, before gossypol
# [8] = patient 26, lung, liver, dose 70, 3 weeks
# [9] = patient 27, abdomen, pelvis, dose 50, 6 weeks
# [10] = patient 34, abdomen, liver, dose 40-50, 12 weeks
# [11] = patient 52, abdomen, dose 40, 6 weeks
# [12] = person, after three weeks, gossypol acetic acid tablets 20 to 50 mg/d oral
smiles,measurement,setting,value
"Cc1cc2c(C(C)C)c(O)c(O)c(C=O)c2c(O)c1-c1c(C)cc2c(C(C)C)c(O)c(O)c(C=O)c2c1O [Gossypol, gossypol]",higher doses shown to be lethal,[1],0.8 mg/mouse and 1.6 mg/mouse
same,tumor responses among the five patients,[2]; five patients of Table 3,"two exhibited partial tumor responses, one has stable disease, and two showed tumor progression"
same,dose above which toxicity begins to occur in humans,[2]; humans,1 to 2 mg/kg/day
same,dose at which the anti-tumor effect occurs in humans,"[2]; humans, approximately one tenth of dose effective in animals",~1 mg/kg/day
same,side effects in treatment of human cancers,"[2]; humans, compared to conventional therapies","mild fatigue, muscle tremor, dry mouth, dry skin, and occasional nausea"
same,Response,[2]; [8],Pro-
same,Side Effects,[2]; [8],Xerostomia; also recorded: Nausea; also recorded: Trans-
same,Response,[2]; [9],Pro-
same,Side Effects,[2]; [9],Xerostomia; also recorded: Fatigue
same,Response,[2]; [10],Stabili-
same,Side Effects,[2]; [10],Xerostomia; also recorded: Fatigue; also recorded: Nausea
same,Response,[2]; [11],Partial
same,Side Effects,[2]; [11],Xerostomia; also recorded: Fatigue; also recorded: Nausea
same,side effects experienced during gossypol treatment,"[2]; person, 20 to 50 mg/d oral","fatigue, xerostomia, tremor, and trasnminitis"
same,clinical symptoms,"[2]; person, after three weeks of treatment","improvement in abdominal pain, ascites, and pulmonary function"
same,decrease in the size of the hepatic metastases on CT scans,[2]; [12],> 50%
same,pulmonary metastases on CT scans,[2]; [12],complete resolution
same,concentration at 6 weeks,"[3]; female, oral, 40 mg/d",4.44 ng/mL
same,concentration at 3 weeks,[3]; male,10.2 ng/mL
same,concentration at 12 weeks,"[3]; male, oral",2.91 ng/mL
same,concentration at 6 weeks,"[3]; male, oral, 50 mg/d",2.29 ng/mL
same,anti-tumor effective dose in animals,[4],~10 mg/kg/day
same,"total tumor burden (cumulative surface area), control relative to gossypol group","[5]; 12th week, FIG. 2",twice
same,effect on body weights,[5]; 12 weeks of gossypol treatment,no significant effect
same,body weight at the end of the study period (mean ± SD),"[5]; after 12 weeks, 30 mg/kg/day oral",30.9 ± 3.6 g
same,number of deaths in the gossypol-treated group,"[5]; during 12 weeks of treatment, group of 24, 10 deaths in control group",two
same,Mean tumor size (mean ± SE),"[5]; week 0, 30 mg/kg/day oral",0.08 ± 0.02 cm^2
same,Total deaths,"[5]; week 0, 30 mg/kg/day oral",0%
same,Prevalence of tumor,"[5]; week 0, 30 mg/kg/day oral, 30 mg/kg/day",72%
same,Prevalence of tumor,"[5]; week 0, 30 mg/kg/day oral, listed as gossypol, 30 mg/kg/day",71%
same,Mean tumor size (mean ± SE),"[5]; week 1, 30 mg/kg/day oral",0.07 ± 0.02 cm^2
same,Prevalence of tumor,"[5]; week 1, 30 mg/kg/day oral",63%
same,Total deaths,"[5]; week 1, 30 mg/kg/day oral",0%
same,Mean tumor size (mean ± SE),"[5]; week 2, 30 mg/kg/day oral",0.12 ± 0.04^a cm^2
same,Prevalence of tumor,"[5]; week 2, 30 mg/kg/day oral",50%
same,Total deaths,"[5]; week 2, 30 mg/kg/day oral",0%
same,Mean tumor size (mean ± SE),"[5]; week 3, 30 mg/kg/day oral",0.15 ± 0.05^a cm^2
same,Prevalence of tumor,"[5]; week 3, 30 mg/kg/day oral",54%
same,Total deaths,"[5]; week 3, 30 mg/kg/day oral",0%
same,Mean tumor size (mean ± SE),"[5]; week 4, 30 mg/kg/day oral",0.20 ± 0.07^a cm^2
same,Prevalence of tumor,"[5]; week 4, 30 mg/kg/day oral",50%
same,Total deaths,"[5]; week 4, 30 mg/kg/day oral",0%
same,Mean tumor size (mean ± SE),"[5]; week 5, 30 mg/kg/day oral",0.28 ± 0.08^a cm^2
same,Prevalence of tumor,"[5]; week 5, 30 mg/kg/day oral",58%
same,Total deaths,"[5]; week 5, 30 mg/kg/day oral",0%
same,Mean tumor size (mean ± SE),"[5]; week 6, 30 mg/kg/day oral",0.32 ± 0.10^a cm^2
same,Prevalence of tumor,"[5]; week 6, 30 mg/kg/day oral",58%
same,Total deaths,"[5]; week 6, 30 mg/kg/day oral",0%
same,Mean tumor size (mean ± SE),"[5]; week 7, 30 mg/kg/day oral",0.38 ± 0.12^a cm^2
same,Prevalence of tumor,"[5]; week 7, 30 mg/kg/day oral",58%
same,Total deaths,"[5]; week 7, 30 mg/kg/day oral",0%
same,Mean tumor size (mean ± SE),"[5]; week 8, 30 mg/kg/day oral",0.45 ± 0.14^a cm^2
same,Prevalence of tumor,"[5]; week 8, 30 mg/kg/day oral",58%
same,Total deaths,"[5]; week 8, 30 mg/kg/day oral",0%
same,Mean tumor size (mean ± SE),"[5]; week 9, 30 mg/kg/day oral",0.50 ± 0.15^a cm^2
same,Prevalence of tumor,"[5]; week 9, 30 mg/kg/day oral",54%
same,Total deaths,"[5]; week 9, 30 mg/kg/day oral",0%
same,Mean tumor size (mean ± SE),"[5]; week 10, 30 mg/kg/day oral",0.59 ± 0.18^a cm^2
same,Prevalence of tumor,"[5]; week 10, 30 mg/kg/day oral",54%
same,Total deaths,"[5]; week 10, 30 mg/kg/day oral",0%
same,Mean tumor size (mean ± SE),"[5]; week 11, 30 mg/kg/day oral",0.68 ± 0.21^a cm^2
same,Prevalence of tumor,"[5]; week 11, 30 mg/kg/day oral",54%
same,Total deaths,"[5]; week 11, 30 mg/kg/day oral",0%
same,Mean tumor size (mean ± SE),"[5]; week 12, 30 mg/kg/day oral",0.81 ± 0.25 (n = 22) cm^2
same,Prevalence of tumor,"[5]; week 12, 30 mg/kg/day oral",54%
same,Total deaths,"[5]; week 12, 30 mg/kg/day oral",8.3%
same,effect on proliferation of SW-13 cells,[6],inhibited cell proliferation
Cc1ccc(C(=O)Nc2ccc(S(=O)(=O)O)c3cc(S(=O)(=O)O)cc(S(=O)(=O)O)c23)cc1NC(=O)c1cccc(NC(=O)Nc2cccc(C(=O)Nc3cc(C(=O)Nc4ccc(S(=O)(=O)O)c5cc(S(=O)(=O)O)cc(S(=O)(=O)O)c45)ccc3C)c2)c1 [Suramin],tumor course under treatment,[7],progressed
